According to PubChem BioAssay AID1671416:

Target: Proto-oncogene tyrosine-protein kinase Src (Homo sapiens) (UniProt P12931)
Experiment: PubChem AID 1671416
Conditions: Z'-LYTE FRET kinase activity, recombinant SRC

Chain of Proto-oncogene tyrosine-protein kinase Src (Homo sapiens) (P12931 whole entry, looked up): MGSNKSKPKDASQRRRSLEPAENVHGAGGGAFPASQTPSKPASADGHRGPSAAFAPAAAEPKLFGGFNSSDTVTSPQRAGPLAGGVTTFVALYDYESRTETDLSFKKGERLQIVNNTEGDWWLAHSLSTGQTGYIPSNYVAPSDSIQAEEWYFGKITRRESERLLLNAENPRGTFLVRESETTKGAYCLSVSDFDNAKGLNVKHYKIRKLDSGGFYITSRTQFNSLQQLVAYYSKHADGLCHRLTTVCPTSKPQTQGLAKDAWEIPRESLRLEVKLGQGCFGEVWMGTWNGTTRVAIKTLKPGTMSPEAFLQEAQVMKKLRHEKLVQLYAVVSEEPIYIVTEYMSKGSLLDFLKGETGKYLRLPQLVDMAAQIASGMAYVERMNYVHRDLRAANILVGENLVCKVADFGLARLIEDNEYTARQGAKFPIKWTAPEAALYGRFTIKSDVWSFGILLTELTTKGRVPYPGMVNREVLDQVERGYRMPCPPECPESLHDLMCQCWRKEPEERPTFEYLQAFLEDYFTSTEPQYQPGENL

IC50: 2.45 µM
SMILES: COc1cc2ncnc(Nc3cccc(Cl)c3)c2cc1OC
